Results: ChEMBL document CHEMBL3045851, “Design, synthesis, and in vitro antimicrobial activities of novel azetidinyl-3-quinazolin-4-one hybrids” (2012)
Converted amounts (≈) assume the structure as drawn.

How the values were obtained:
Type in all cases: functional
Bacillus subtilis = assay: Antibacterial activity against Bacillus subtilis MTCC 441 after overnight incubation by broth dilution method
Streptococcus pyogenes = assay: Antibacterial activity against Streptococcus pyogenes MTCC 442 after overnight incubation by broth dilution method
Staphylococcus aureus = assay: Antibacterial activity against Staphylococcus aureus MTCC 96 after overnight incubation by broth dilution method
Salmonella typhimurium = assay: Antibacterial activity against Salmonella enterica subsp. enterica serovar Typhimurium MTCC 98 after overnight incubation by broth dilution method
Klebsiella pneumoniae = assay: Antibacterial activity against Klebsiella pneumoniae MTCC 109 after overnight incubation by broth dilution method
Pseudomonas aeruginosa = assay: Antibacterial activity against Pseudomonas aeruginosa MTCC 1688 after overnight incubation by broth dilution method
[1] = system: Mycobacterium tuberculosis; assay: Growth inhibition of Mycobacterium tuberculosis H37Rv MTCC 200 at 50 ug/ml after 28 days by Lowenstein-Jensen method; conditions: H37Rv MTCC 200, 672 h, read-out: GI
Aspergillus clavatus = assay: Antifungal activity against Aspergillus clavatus MTCC 1323 by broth microdilution method
Aspergillus niger = assay: Antifungal activity against Aspergillus niger MTCC 282 by broth microdilution method
Candida albicans = assay: Antifungal activity against Candida albicans MTCC 227 by broth microdilution method
Escherichia coli = assay: Antibacterial activity against Escherichia coli MTCC 443 after overnight incubation by broth dilution method
[2] = system: Mycobacterium tuberculosis; assay: Growth inhibition of Mycobacterium tuberculosis H37Rv MTCC 200 at 270 ug/ml after 28 days by Lowenstein-Jensen method; conditions: H37Rv MTCC 200, 672 h, read-out: GI
[3] = system: Mycobacterium tuberculosis; assay: Growth inhibition of Mycobacterium tuberculosis H37Rv MTCC 200 at 259 ug/ml after 28 days by Lowenstein-Jensen method; conditions: H37Rv MTCC 200, 672 h, read-out: GI
[4] = system: Mycobacterium tuberculosis; assay: Growth inhibition of Mycobacterium tuberculosis H37Rv MTCC 200 at 250 ug/ml after 28 days by Lowenstein-Jensen method; conditions: H37Rv MTCC 200, 672 h, read-out: GI
[5] = system: Mycobacterium tuberculosis; assay: Growth inhibition of Mycobacterium tuberculosis H37Rv MTCC 200 at 0.2 ug/ml after 28 days by Lowenstein-Jensen method; conditions: H37Rv MTCC 200, 672 h, read-out: GI
[6] = system: Mycobacterium tuberculosis; assay: Growth inhibition of Mycobacterium tuberculosis H37Rv MTCC 200 at 500 ug/ml after 28 days by Lowenstein-Jensen method; conditions: H37Rv MTCC 200, 672 h, read-out: GI
[7] = system: Mycobacterium tuberculosis; assay: Growth inhibition of Mycobacterium tuberculosis H37Rv MTCC 200 at 40 ug/ml after 28 days by Lowenstein-Jensen method
[8] = system: Mycobacterium tuberculosis; assay: Growth inhibition of Mycobacterium tuberculosis H37Rv MTCC 200 at 100 ug/ml after 28 days by Lowenstein-Jensen method; conditions: H37Rv MTCC 200, 672 h, read-out: GI
[9] = system: Mycobacterium tuberculosis; assay: Growth inhibition of Mycobacterium tuberculosis H37Rv MTCC 200 at 62.5 ug/ml after 28 days by Lowenstein-Jensen method; conditions: H37Rv MTCC 200, 672 h, read-out: GI

Row | Compound | MIC99 (Bacillus subtilis) [µg/mL] | MIC99 (Streptococcus pyogenes) [µg/mL] | MIC99 (Staphylococcus aureus) [µg/mL] | MIC99 (Salmonella typhimurium) [µg/mL] | MIC99 (Klebsiella pneumoniae) [µg/mL] | MIC99 (Pseudomonas aeruginosa) [µg/mL] | inhibition of growth at 50 µg/mL [1] [%] | MIC99 (Aspergillus clavatus) [µg/mL] | MIC99 (Aspergillus niger) [µg/mL] | MIC99 (Candida albicans) [µg/mL] | MIC99 (Escherichia coli) [µg/mL] | inhibition of growth at 270 µg/mL [2] [%] | inhibition of growth at 259 µg/mL [3] [%] | inhibition of growth at 250 µg/mL [4] [%] | inhibition of growth at 0.2 µg/mL [5] [%] | inhibition of growth at 500 µg/mL [6] [%] | inhibition of growth at 40 µg/mL ([7]; H37Rv MTCC 200, 672 h, read-out: GI) [%] | growth inhibition (GI) [7] [%] | inhibition of growth at 100 µg/mL [8] [%] | inhibition of growth at 62.5 µg/mL [9] [%]
1 | O=C(Nn1c(CNN2C(=O)C(Cl)C2c2ccc([N+](=O)[O-])cc2)nc2ccccc2c1=O)c1ccncc1 (stereo unspecified) | 100 (≈ 192 µM) | 125 (≈ 240 µM) | 100 (≈ 192 µM) | 200 (≈ 385 µM) | 200 (≈ 385 µM) | 150 (≈ 289 µM) | 99 | > 1000 | > 1000 | 500 (≈ 962 µM) | 150 (≈ 289 µM) |  |  |  |  |  |  |  |  | 
2 | O=C(Nn1c(CNN2C(=O)C(Cl)C2c2cccc([N+](=O)[O-])c2)nc2ccccc2c1=O)c1ccncc1 (stereo unspecified) | 200 (≈ 385 µM) | 500 (≈ 962 µM) | 500 (≈ 962 µM) | 250 (≈ 481 µM) | 500 (≈ 962 µM) | 250 (≈ 481 µM) |  | > 1000 | > 1000 | 1000 (≈ 1920 µM) | 250 (≈ 481 µM) | 97 |  |  |  |  |  |  |  | 
3 | COc1ccc(C2C(Cl)C(=O)N2NCc2nc3ccccc3c(=O)n2NC(=O)c2ccncc2)cc1 (stereo unspecified) | 250 (≈ 495 µM) | 200 (≈ 396 µM) | 125 (≈ 248 µM) | 500 (≈ 990 µM) | 62.5 (≈ 124 µM) | 500 (≈ 990 µM) |  | 200 (≈ 396 µM) | 250 (≈ 495 µM) | 200 (≈ 396 µM) | 500 (≈ 990 µM) |  | 98 |  |  |  |  |  |  | 
4 | O=C(O)c1cn(C2CC2)c2cc(N3CCNCC3)c(F)cc2c1=O [CIPROFLOXACIN] |  | 50 (≈ 151 µM) | 50 (≈ 151 µM) | 25 (≈ 75.4 µM) | 25 (≈ 75.4 µM) | 25 (≈ 75.4 µM) |  |  |  |  | 25 (≈ 75.4 µM) |  |  |  |  |  |  |  |  | 
5 | COC1=CC(=O)C[C@@H](C)[C@]12Oc1c(Cl)c(OC)cc(OC)c1C2=O [GRISEOFULVIN] |  |  |  |  |  |  |  | 100 (≈ 283 µM) | 100 (≈ 283 µM) | 500 (≈ 1420 µM) |  |  |  |  |  |  |  |  |  | 
6 | O=C(Nn1c(CNN2C(=O)C(Cl)C2c2ccccc2O)nc2ccccc2c1=O)c1ccncc1 (stereo unspecified) | 250 (≈ 509 µM) | 250 (≈ 509 µM) | 250 (≈ 509 µM) | 125 (≈ 255 µM) | 250 (≈ 509 µM) | 125 (≈ 255 µM) |  | 1000 (≈ 2040 µM) | 1000 (≈ 2040 µM) | 250 (≈ 509 µM) | 100 (≈ 204 µM) |  |  | 97 |  |  |  |  |  | 
7 | CC1(C)S[C@@H]2[C@H](NC(=O)[C@H](N)c3ccccc3)C(=O)N2[C@H]1C(=O)O [AMPICILLIN] |  | 100 (≈ 286 µM) | 250 (≈ 715 µM) | 100 (≈ 286 µM) | 100 (≈ 286 µM) | 100 (≈ 286 µM) |  |  |  |  | 100 (≈ 286 µM) |  |  |  | 99 |  |  |  |  | 
8 | CCn1cc(C(=O)O)c(=O)c2cc(F)c(N3CCNCC3)cc21 [NORFLOXACIN] |  | 10 (≈ 31.3 µM) | 10 (≈ 31.3 µM) | 10 (≈ 31.3 µM) | 10 (≈ 31.3 µM) | 10 (≈ 31.3 µM) |  |  |  |  | 10 (≈ 31.3 µM) |  |  |  |  |  |  |  |  | 
9 | CCc1ccc(C2C(Cl)C(=O)N2NCc2nc3ccccc3c(=O)n2NC(=O)c2ccncc2)cc1 (stereo unspecified) | 100 (≈ 199 µM) | 250 (≈ 497 µM) | 200 (≈ 398 µM) | 125 (≈ 249 µM) | 250 (≈ 497 µM) | 500 (≈ 994 µM) |  | > 1000 | > 1000 | 1000 (≈ 1990 µM) | 200 (≈ 398 µM) |  |  |  |  | 97 |  |  |  | 
10 | CO[C@H]1/C=C/O[C@@]2(C)Oc3c(C)c(O)c4c(O)c(c(/C=N/N5CCN(C)CC5)c(O)c4c3C2=O)NC(=O)/C(C)=C\C=C\[C@H](C)[C@H](O)[C@@H](C)[C@@H](O)[C@@H](C)[C@H](OC(C)=O)[C@@H]1C [RIFAMPIN] |  |  |  |  |  |  |  |  |  |  |  |  |  |  |  |  | 98 |  |  | 
11 | GENTAMICIN |  | 0.5 | 0.25 | 1 | 0.05 | 1 |  |  |  |  | 0.05 |  |  |  |  |  |  | 98 |  | 
12 | O=C(N[C@H](CO)[C@H](O)c1ccc([N+](=O)[O-])cc1)C(Cl)Cl [CHLORAMPHENICOL] |  | 50 (≈ 155 µM) | 50 (≈ 155 µM) | 50 (≈ 155 µM) | 50 (≈ 155 µM) | 50 (≈ 155 µM) |  |  |  |  | 50 (≈ 155 µM) |  |  |  |  |  |  |  |  | 
13 | O=C(Nn1c(CNN2C(=O)C(Cl)C2c2ccccc2[N+](=O)[O-])nc2ccccc2c1=O)c1ccncc1 (stereo unspecified) | 250 (≈ 481 µM) | 250 (≈ 481 µM) | 200 (≈ 385 µM) | 250 (≈ 481 µM) | 250 (≈ 481 µM) | 200 (≈ 385 µM) |  | 500 (≈ 962 µM) | 500 (≈ 962 µM) | 1000 (≈ 1920 µM) | 100 (≈ 192 µM) |  |  |  |  |  |  |  | 99 | 
14 | O=C(Nn1c(CNN2C(=O)C(Cl)C2c2ccc(O)cc2)nc2ccccc2c1=O)c1ccncc1 (stereo unspecified) | 250 (≈ 509 µM) | 250 (≈ 509 µM) | 200 (≈ 407 µM) | 250 (≈ 509 µM) | 250 (≈ 509 µM) | 250 (≈ 509 µM) |  | > 1000 | > 1000 | 500 (≈ 1020 µM) | 250 (≈ 509 µM) |  |  | 97 |  |  |  |  |  | 
15 | NYSTATIN |  |  |  |  |  |  |  | 100 | 100 | 100 |  |  |  |  |  |  |  |  |  | 
16 | O=C(Nn1c(CNN2C(=O)C(Cl)C2c2ccccc2)nc2ccccc2c1=O)c1ccncc1 (stereo unspecified) | 100 (≈ 211 µM) | 250 (≈ 526 µM) | 250 (≈ 526 µM) | 200 (≈ 421 µM) | 200 (≈ 421 µM) | 125 (≈ 263 µM) |  | 500 (≈ 1050 µM) | 500 (≈ 1050 µM) | 1000 (≈ 2110 µM) | 200 (≈ 421 µM) |  |  |  |  | 98 |  |  |  | 
17 | NNC(=O)c1ccncc1 [ISONIAZID] |  |  |  |  |  |  |  |  |  |  |  |  |  |  | 99 |  |  |  |  | 
18 | O=C(Nn1c(CNN2C(=O)C(Cl)C2c2ccc(Br)cc2)nc2ccccc2c1=O)c1ccncc1 (stereo unspecified) | 200 (≈ 361 µM) | 200 (≈ 361 µM) | 200 (≈ 361 µM) | 100 (≈ 181 µM) | 500 (≈ 903 µM) | 200 (≈ 361 µM) |  | 500 (≈ 903 µM) | 1000 (≈ 1810 µM) | 500 (≈ 903 µM) | 62.5 (≈ 113 µM) |  |  |  |  |  |  |  | 97 | 
19 | O=C(Nn1c(CNN2C(=O)C(Cl)C2c2ccc(Cl)cc2)nc2ccccc2c1=O)c1ccncc1 (stereo unspecified) | 250 (≈ 491 µM) | 500 (≈ 982 µM) | 500 (≈ 982 µM) | 100 (≈ 196 µM) | 100 (≈ 196 µM) | 100 (≈ 196 µM) |  | 1000 (≈ 1960 µM) | 1000 (≈ 1960 µM) | 250 (≈ 491 µM) | 50 (≈ 98.2 µM) |  |  |  |  |  |  |  |  | 99
20 | O=C(Nn1c(CNN2C(=O)C(Cl)C2c2ccccc2Cl)nc2ccccc2c1=O)c1ccncc1 (stereo unspecified) | 500 (≈ 982 µM) | 500 (≈ 982 µM) | 500 (≈ 982 µM) | 500 (≈ 982 µM) | 100 (≈ 196 µM) | 250 (≈ 491 µM) |  | 250 (≈ 491 µM) | 200 (≈ 393 µM) | 200 (≈ 393 µM) | 250 (≈ 491 µM) |  |  |  |  | 98 |  |  |  | 
